According to the supplement of paper PMC10307832:

How the values were obtained:
Assay in all cases: relative viability (nuclei count vs DMSO), 5 days (fraction); higher = more cells survive
[1] = compound: C[C@H]([C@@H](C(=O)N)NC(=O)[C@@H]1CSSC[C@@H](C(=O)N[C@H](C(=O)N[C@@H](C(=O)N[C@H](C(=O)N1)CCCCN)CC2=CNC3=CC=CC=C32)CC4=CC=C(C=C4)O)NC(=O)[C@@H](CC5=CC=CC=C5)N)O [CAP-232] + CC1(C)CCC(c2ccc(Cl)cc2)=C(CN2CCN(c3ccc(C(=O)NS(=O)(=O)c4ccc(N[C@H](CCN5CCOCC5)CSc5ccccc5)c(S(=O)(=O)C(F)(F)F)c4)cc3)CC2)C1 [Navitoclax] (partner 0.5 µM)
Procedure, shortened: (§1)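 The day after seeding in 1536-well plates, lung cancer cell lines were treated by pin tool with a single drug, or with a fixed anchor-drug dose together with five library-drug doses (not always all listed) in √10 steps. After 5 days, a combined fix-and-stain solution (final 0.05% Triton X-100, 1% formaldehyde, 1 ug/ml Hoechst) was added. Nuclei counted on 4× images gave relative viability as treated counts over vehicle counts, reported as the median of duplicate plates.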

[2] = compound: C[C@H]([C@@H](C(=O)N)NC(=O)[C@@H]1CSSC[C@@H](C(=O)N[C@H](C(=O)N[C@@H](C(=O)N[C@H](C(=O)N1)CCCCN)CC2=CNC3=CC=CC=C32)CC4=CC=C(C=C4)O)NC(=O)[C@@H](CC5=CC=CC=C5)N)O [CAP-232] + COc1cccc2cc(-c3nc([C@H]4CC[C@H](C(=O)O)CC4)n4ncnc(N)c34)[nH]c12 [OSI-027] (partner 0.5 µM)
Procedure, shortened: as §1

[3] = compound: C[C@H]([C@@H](C(=O)N)NC(=O)[C@@H]1CSSC[C@@H](C(=O)N[C@H](C(=O)N[C@@H](C(=O)N[C@H](C(=O)N1)CCCCN)CC2=CNC3=CC=CC=C32)CC4=CC=C(C=C4)O)NC(=O)[C@@H](CC5=CC=CC=C5)N)O [CAP-232] + CC(=O)Nc1cccc(-n2c(=O)n(C3CC3)c(=O)c3c(Nc4ccc(I)cc4F)n(C)c(=O)c(C)c32)c1 [Trametinib] (partner 0.02 µM)
Procedure, shortened: as §1

[4] = compound: C[C@H]([C@@H](C(=O)N)NC(=O)[C@@H]1CSSC[C@@H](C(=O)N[C@H](C(=O)N[C@@H](C(=O)N[C@H](C(=O)N1)CCCCN)CC2=CNC3=CC=CC=C32)CC4=CC=C(C=C4)O)NC(=O)[C@@H](CC5=CC=CC=C5)N)O [CAP-232] + O=C(c1cc(Cc2n[nH]c(=O)c3ccccc23)ccc1F)N1CCN(C(=O)C2CC2)CC1 [Olaparib] (partner 8 µM)
Procedure, shortened: as §1

[5] = compound: C[C@H]([C@@H](C(=O)N)NC(=O)[C@@H]1CSSC[C@@H](C(=O)N[C@H](C(=O)N[C@@H](C(=O)N[C@H](C(=O)N1)CCCCN)CC2=CNC3=CC=CC=C32)CC4=CC=C(C=C4)O)NC(=O)[C@@H](CC5=CC=CC=C5)N)O [CAP-232] + Cc1cc(Nc2cc(N3CCN(C)CC3)nc(Sc3ccc(NC(=O)C4CC4)cc3)n2)n[nH]1 [Tozasertib] (partner 0.1 µM)
Procedure, shortened: as §1

Row | Cell Line | relative viability ([1]; first compound 0.4 µM) | relative viability ([1]; first compound 1.265 µM) | relative viability ([1]; first compound 4 µM) | relative viability ([1]; first compound 12.65 µM) | relative viability ([2]; first compound 0.4 µM) | relative viability ([2]; first compound 1.265 µM) | relative viability ([2]; first compound 4 µM) | relative viability ([2]; first compound 12.65 µM) | relative viability ([3]; first compound 0.4 µM) | relative viability ([3]; first compound 1.265 µM) | relative viability ([3]; first compound 4 µM) | relative viability ([3]; first compound 12.65 µM) | relative viability ([4]; first compound 0.4 µM) | relative viability ([4]; first compound 1.265 µM) | relative viability ([4]; first compound 4 µM) | relative viability ([4]; first compound 12.65 µM) | relative viability ([5]; first compound 0.4 µM) | relative viability ([5]; first compound 1.265 µM) | relative viability ([5]; first compound 4 µM) | relative viability ([5]; first compound 12.65 µM)
1 | HCC-15 | 0.736 | 0.726 | 0.774 | 0.576 | 0.714 | 0.662 | 0.69 | 0.521 | 0.376 | 0.364 | 0.393 | 0.267 | 0.65 | 0.711 | 0.737 | 0.55 | 0.378 | 0.329 | 0.382 | 0.435
2 | HCC-44 | 1.03 | 0.977 | 1.16 | 1.14 | 0.636 | 0.507 | 0.489 | 0.371 | 0.997 | 1.02 | 1.06 | 1.04 | 0.99 | 0.975 | 0.943 | 1.04 | 0.919 | 0.95 | 1.18 | 1.09
3 | HCC-78 | 0.789 | 0.658 | 0.697 | 0.732 | 0.356 | 0.364 | 0.368 | 0.397 | 0.688 | 0.824 | 0.918 | 0.727 | 0.852 | 0.863 | 1.08 | 0.924 | 0.257 | 0.405 | 0.493 | 0.492
4 | HCC-366 | 1.06 | 1.17 | 1.2 | 1.09 | 0.986 | 0.875 | 1.22 | 0.82 | 0.365 | 0.419 | 0.327 | 0.349 | 0.4 | 0.383 | 0.289 | 0.299 | 0.132 | 0.106 | 0.108 | 0.078
5 | HCC-827 | 0.96 | 1 | 1.03 | 0.993 | 0.896 | 0.786 | 0.831 | 0.637 | 0.469 | 0.543 | 0.491 | 0.549 | 0.699 | 0.627 | 0.622 | 0.672 | 0.525 | 0.41 | 0.417 | 0.484
6 | HOP-62 | 0.792 | 0.955 | 1.17 | 0.902 | 1.03 | 0.745 | 0.756 | 0.781 | 0.333 | 0.348 | 0.382 | 0.423 | 1.08 | 0.388 | 0.604 | 0.709 | 0.347 | 0.388 | 0.387 | 0.406
7 | IA-LM | 0.78 | 0.871 | 0.805 | 0.372 | – | – | – | – | – | – | – | – | 0.784 | 0.86 | 0.993 | 0.405 | – | – | – | –
8 | LCLC-103H | – | – | – | – | 0.481 | 0.375 | 0.496 | 0.464 | 0.662 | 0.666 | 0.723 | 0.703 | 0.882 | 0.752 | 0.733 | 0.751 | 0.544 | 0.47 | 0.479 | 0.572
9 | NCI-H358 | – | – | – | – | 0.665 | 0.864 | 0.71 | 0.664 | 0.111 | 0.138 | 0.13 | 0.098 | 0.454 | 0.677 | 0.783 | 0.465 | 0.102 | 0.115 | 0.089 | 0.0797
10 | NCI-H522 | – | – | – | – | 0.72 | 0.702 | 0.806 | 0.696 | 0.772 | 0.856 | 0.607 | 0.726 | 0.78 | 0.587 | 0.638 | 0.789 | 0.555 | 0.58 | 0.503 | 0.544
11 | NCI-H650 | – | – | – | – | 0.619 | 0.506 | 0.602 | 0.543 | 0.821 | 1.04 | 0.896 | 1.01 | 0.434 | 0.427 | 0.341 | 0.361 | 0.749 | 0.747 | 0.713 | 0.7
12 | NCI-H661 | – | – | – | – | 0.757 | 0.692 | 0.753 | 0.545 | 0.523 | 0.536 | 0.578 | 0.377 | 0.768 | 0.771 | 0.8 | 0.683 | 0.367 | 0.372 | 0.347 | 0.329
13 | NCI-H1563 | – | – | – | – | 0.757 | 0.673 | 0.647 | 0.613 | – | – | – | – | – | – | – | – | – | – | – | –
14 | NCI-H1703 | 1.09 | 0.901 | 0.964 | 0.793 | – | – | – | – | – | – | – | – | 0.388 | 0.468 | 0.315 | 0.388 | – | – | – | –
15 | NCI-H1792 | 1.2 | 0.638 | 0.656 | 0.452 | 0.996 | 0.76 | 0.875 | 0.832 | 0.516 | 0.443 | 0.474 | 0.415 | 0.51 | 0.642 | 0.623 | 0.235 | – | – | – | –
16 | NCI-H2342 | – | – | – | – | 0.565 | 0.555 | 0.623 | 0.568 | 0.788 | 0.746 | 0.766 | 0.787 | 0.447 | 0.441 | 0.46 | 0.396 | 0.479 | 0.459 | 0.436 | 0.437
17 | SW 900 | – | – | – | – | 0.66 | 0.54 | 0.726 | 0.449 | 0.75 | 0.93 | 0.677 | 0.767 | 0.766 | 0.883 | 0.698 | 0.99 | 0.658 | 0.593 | 0.583 | 0.582
